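Cells were grown in 96-well plates and exposed to each compound for 48 hours at five concentrations; endpoints were interpolated linearly between bracketing concentrations, or set to the highest concentration if not reached. GI50 is the concentration that inhibits growth by half. TGI denotes the concentration required for complete inhibition of growth.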
Tests used:
Experiment in all cases: inhibition of tumour cell growth, NCI panel, 48 h
[1] = tested on: EKVX NSCLC
[2] = tested on: HCC-2998 colon
[3] = tested on: HCT-116 colon
[4] = tested on: KM12 colon
[5] = tested on: M14 melanoma
[6] = tested on: MOLT-4 leukemia
[7] = tested on: MDA-MB-435
[8] = tested on: PC-3 prostate
[9] = tested on: T-47D breast
[10] = tested on: BT-549 breast

c1ccc(C2=NOC3C4CCC(C4)C23)cc1 (centres undefined) was tested, and the TGI [1] was greater than 100 µM, the TGI [2] was greater than 100 µM and the TGI [3] was greater than 100 µM. For the same molecule, the TGI [4] was greater than 100 µM, the TGI [5] was greater than 100 µM and the TGI [6] was greater than 100 µM.
For O=C(NC1CC1)c1c(O)[nH]c(=S)[nH]c1=O, the TGI [3] was greater than 100 µM, the TGI [4] was greater than 100 µM and the TGI [5] was greater than 100 µM. The TGI [6] was greater than 100 µM.
Molecule Cn1[nH]cc2ccc3nc4ccccc4c(=O)c3c21 has a TGI [1] greater than 100 µM, a TGI [2] of 90.5 µM and a TGI [3] greater than 100 µM. For the same molecule, the TGI [4] was greater than 100 µM, the TGI [5] was greater than 100 µM and the TGI [6] was greater than 95.1 µM.
For COc1ccc(CN2C(=O)[C@@H]3Cc4c(OC)c(C)c(OC)c(OC)c4[C@H](/C2=C\c2cc(OC)c(OC)c(C)c2OC)N3C(=O)OC(C)C)cc1, the TGI [1] was greater than 100 µM, the TGI [2] was greater than 100 µM and the TGI [3] was greater than 100 µM. For the same molecule, the TGI [4] was greater than 100 µM, the TGI [5] was greater than 100 µM and the TGI [6] was greater than 100 µM.
For Cc1ccc2c(c1)-c1c3c(nn1C)-c1ccccc1SC3O2 (centres undefined), the TGI [1] was greater than 100 µM, the TGI [2] was greater than 100 µM and the TGI [3] was greater than 100 µM. It also gave a TGI [4] greater than 100 µM and a TGI [6] greater than 100 µM.
CC(C)(C)[Si](C)(C)OCC1OC(n2cnc3c(=O)[nH]cnc32)CC1O (centres undefined) was tested, and the TGI [1] was greater than 100 µM, the TGI [2] was greater than 100 µM and the TGI [3] was greater than 100 µM. It also gave a TGI [4] greater than 100 µM, a TGI [5] greater than 100 µM and a TGI [7] greater than 100 µM. The TGI [6] was greater than 100 µM, the TGI [8] was greater than 100 µM and the TGI [9] was greater than 100 µM.
COC(=O)c1c(O)ccc(O)c1C(C(C)=O)C(C)=O was tested, and the TGI [1] was greater than 100 µM, the TGI [2] was greater than 100 µM and the TGI [3] was greater than 100 µM. The TGI [4] was greater than 100 µM, the TGI [5] was greater than 100 µM and the TGI [6] was greater than 100 µM.
With O=C(/C=C/c1ccc(Cl)c(Cl)c1)c1ccccc1Cl the TGI [1] was 31.4 µM, the TGI [2] was 25.6 µM and the TGI [3] was 9.95 µM. It also gave a TGI [4] of 20.9 µM, a TGI [5] of 12.7 µM and a TGI [6] of 98.4 µM.
With C[P+]1(Cc2ccccc2)CCCC1 the TGI [1] was greater than 100 µM, the TGI [2] was greater than 100 µM and the TGI [3] was greater than 100 µM. It also gave a TGI [4] greater than 100 µM, a TGI [5] greater than 100 µM and a TGI [6] greater than 100 µM.
Cc1cccc(C)c1NC(=O)CCC(=O)NC(N)=NC#N showed a TGI [1] greater than 100 µM, a TGI [2] greater than 100 µM and a TGI [3] greater than 100 µM. The TGI [4] was greater than 100 µM, the TGI [5] was greater than 100 µM and the TGI [6] was greater than 100 µM.
In the case of NS(=O)(=O)c1ccc(N=Nc2ccc[nH]c2=O)cc1, the TGI [10] is reported as greater than 100 µM, the TGI [1] is reported as greater than 100 µM and the TGI [3] is reported as greater than 100 µM. For the same molecule, the TGI [4] was greater than 100 µM, the TGI [5] was greater than 100 µM and the TGI [7] was greater than 100 µM. The TGI [6] was greater than 100 µM, the TGI [8] was greater than 100 µM and the TGI [9] was greater than 100 µM.
In the case of CC(=O)OC1CCC2OOC1O2 (centres undefined), the TGI [1] is reported as greater than 100 µM, the TGI [2] is reported as greater than 100 µM and the TGI [3] is reported as greater than 100 µM. The TGI [4] was greater than 100 µM, the TGI [5] was greater than 100 µM and the TGI [6] was greater than 100 µM.
Molecule CN(C)NC(=O)/C(=C/c1ccc(Cl)cc1)NC(=O)c1ccccc1 has a TGI [1] greater than 100 µM, a TGI [2] greater than 100 µM and a TGI [3] greater than 100 µM. The TGI [4] was greater than 100 µM, the TGI [5] was greater than 100 µM and the TGI [6] was greater than 100 µM.
Work on CC[C@@H](C)/C=C(C)/C=C/C(=O)c1c(O)c(-c2ccc(OC(=O)[C@@]34CC[C@@](C)(C(=O)O3)C4(C)C)cc2)cn(O)c1=O yielded a GI50 [1] of 2.81 µM, a TGI [1] greater than 50 µM and a GI50 [2] of 3.65 µM. It also gave a TGI [2] greater than 50 µM, a GI50 [3] of 1.47 µM and a TGI [3] greater than 50 µM. For the same molecule, the GI50 [4] was 3.85 µM, the TGI [4] was greater than 50 µM and the GI50 [5] was 1.06 µM. For the same molecule, the TGI [5] was 2.49 µM, the GI50 [7] was 2.46 µM and the TGI [7] was greater than 50 µM. For the same molecule, the GI50 [6] was 1.04 µM, the TGI [6] was greater than 50 µM and the GI50 [8] was 20.4 µM. It also gave a TGI [8] greater than 50 µM, a GI50 [9] of 1.94 µM and a TGI [9] greater than 50 µM.

Reference: PubChem BioAssay (NCI)
